According to patent US11708344B2, “Flavone derivatives for the treatment and prophylaxis of hepatitis B virus disease” (Hoffmann-La Roche Inc., priority 2018, dated 2023):
pIC50: −log10 of the molar value. Like-named read-outs stand apart in the source and are kept apart here.

How the values were obtained:
[1] = test system: HBsAg in HBV-infected PHH; assay: Cryopreserved primary human hepatocytes (PHH) HBV infection assay, extracellular HBsAg (CLIA); type: cell-based
Description: This assay is used to confirm the anti-HBV effect of the compounds in HBV PHH infection assay. Cryopreserved PHH (BioreclamationIVT, Lot YJM) was thawed at 37° C. and gently transferred into pre-warmed InVitroGRO HT medium (BioreclamationIVT, Cat. S03317). The mixture was centrifuged at 70 relative centrifugal force (RCF) for 3 minutes at RT, and the supernatant was discarded. Pre-warmed InVitroGRO CP medium (BioreclamationIVT, Cat #S03316) was added to the cell pellet to gently re-suspend cells. The cells were seeded at the density of 5.8×10^4 cells per well to collagen I coated 96-well plate (Gibco, Cat. A1142803) with the InVitroGRO CP medium. All plates were incubated at 37° C. with 5% CO2 and 85% humidity.
At 20 hours after plating, the medium was changed to PHH culture medium (Dulbecco's Modified Eagle Medium (DMEM)/F12 (1:1) (Gibco, Cat. 11320-033), 10% fetal bovine semm (Gibco Cat. 10099141), 100 U/mL penicillin, 100 μg/mL streptomycin (Gibco, Cat. 151401-122), […] (Invitrogen Cat. PHG0311L), 20 ng/mL dexamethasone (Sigma, Cat. D4902) and 250 ng/mL human recombinant insulin (Gibco, Cat. 12585-014)). And the cells were incubated at 37° C. with 5% CO2 and 85% humidity for 4 hours. The medium was then changed to pre-warmed PHH culture medium containing 4% polyethylene glycol (PEG) MW8000 (Sigma, Cat. P1458-50 ML) and 1% DMSO (Sigma, Cat. D2650). 5.8×10^6 genomic equivalents of HBV were added into the medium.
At 24 hours post-infection, the cells were gently washed with PBS and refreshed with PHH culture medium supplemented with 1% DMSO, and 0.25 mg/mL Matrix gel (Corning, Cat. 356237) at 200 μL per well. All plates were immediately placed in at 37° C. CO2 incubator.
24 hours later, serial dilutions of compounds made with DMSO were further diluted with the same culture medium (PHH culture medium supplemented with 1% DMSO and 0.25 mg/mL Matrix gel as described above) before they were added to the cells to reach desired final compound concentrations and 1% DMSO concentration. The medium containing the compounds were refreshed every three days.
At 9 days post-compound treatment, extracellular HBsAg level were measured with Chemiluminescence Immuno Assay (CLIA) kit (Autobio, HBsAg Quantitative CLIA). Extracellular HBV DNA was extracted by MagNA Pure 96 system (Roche) and then determined by quantitative PCR with the following primers and probe: […]
HBsAg IC50 and HBV DNA IC50 values were derived from the dose-response curve using 4 parameter logistic curve fit method. The compounds of formula (I) have HBsAg IC50<20 μM, particularly <1 μM; and HBV DNA IC50<50 μM.

[2] = test system: HBeAg (surrogate marker for cccDNA) in HepDES19 cells; assay: Engineered HepDES19 primary screen assay (HBeAg ELISA); type: cell-based, HBV
Outline: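 HepDES19 cells were induced by Tet withdrawal for 8 days, then treated with half-log compound dilutions (1% DMSO final) for 5 days at 37 °C. HBeAg was measured by ELISA as the cccDNA surrogate, viability by CCK-8, and IC50 from a 4-parameter logistic fit.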

[3] = Hepatitis B virus, Hepatocyte, 216 h, read-out: HBsAg IC50, Cryopreserved PHH infected with HBV, 9 days post-compound treatment, extracellular HBsAg
[4] = Hepatitis B virus, HepDES19, 120 h, read-out: IC50 (HBeAg level, HepDES19 primary screen assay), HepDES19 cells, 5 days compound incubation, HBeAg ELISA
[5] = read-out: IC50 (HBeAg level, HepDES19 primary screen assay), HepDES19 cells, 5 days compound incubation, HBeAg ELISA

SMILES | pIC50 [1, 3] | pIC50 [2, 4] | pIC50 ([1]; read-out: HBsAg IC50, Cryopreserved PHH infected with HBV, 9 days post-compound treatment, extracellular HBsAg) | pIC50 [2, 5]
O=C(O)C1CC(Oc2cc(Br)ccc2-c2cc(=O)c3cccc(Cl)c3o2)C1 (centres unmarked) [Example B001, 3-[5-bromo-2-(8-chloro-4-oxo-chromen-2-yl)phenoxy]cyclobutanecarboxylic acid] | 5.99 | 6.67 |  | 
Cc1cc(-c2cc(=O)c3cccc(Cl)c3o2)c(OCC(=O)N2C[C@@H](O)[C@@H](O)C2)cc1Br [Example A090, 2-[4-bromo-5-methyl-2-[2-oxo-2-[rac-(3S,4R)-3,4-dihydroxypyrrolidin-1-yl]ethoxy]phenyl]-8-chloro-chromen-4-one] | 5.03 | 5.32 |  | 
CCc1ccc(-c2cc(=O)c3cccc(Cl)c3o2)c(O[C@H]2C[C@@H](C(=O)O)C2)c1 [Example B019-A, Cis-3-[2-(8-chloro-4-oxo-chromen-2-yl)-5-ethyl-phenoxy]cyclobutanecarboxylic acid] | 5.40 | 5.99 |  | 
CN(C)S(=O)(=O)CCCOc1cc(Br)ccc1-c1cc(=O)c2cccc(Cl)c2o1 [Example B071, 3-[5-bromo-2-(8-chloro-4-oxo-chromen-2-yl)phenoxy]-N,N-dimethyl-propane-1-sulfonamide] | 5.31 | 6.01 |  | 
Cc1cc(-c2cc(=O)c3cccc(Cl)c3o2)c(OCCO[C@H]2C[C@@H](C(=O)O)C2)cc1Cl [Example C055-A, Cis-3-[2-[5-chloro-2-(8-chloro-4-oxo-chromen-2-yl)-4-methyl-phenoxy]ethoxy]cyclobutanecarboxylic acid] | 5.03 | 5.39 |  | 
O=c1cc(-c2ccc(N3CCOCC3)cc2OCCO[C@H]2C[C@H](C(=O)O)C2)oc2c(Cl)cccc12 [Example C067-B, trans-3-[2-[2-(8-chloro-4-oxo-chromen-2-yl)-5-morpholino-phenoxy]ethoxy]cyclobutanecarboxylic acid] | 5.32 | 5.08 |  | 
Cc1cc(-c2cc(=O)c3cccc(Cl)c3o2)c(O[C@H]2C[C@@H](C(=O)O)C2)cc1Br [Example B013-A, Cis-3-[5-bromo-2-(8-chloro-4-oxo-chromen-2-yl)-4-methyl-phenoxy]cyclobutanecarboxylic acid] | 5.14 | 6.04 |  | 
O=C(O)COCCCOc1cc(Br)ccc1-c1cc(=O)c2cccc(Cl)c2o1 [Example C010, 2-[3-[5-bromo-2-(8-chloro-4-oxo-chromen-2-yl)phenoxy]propoxy]acetic acid] | 5.03 | 6.16 |  | 
O=C(O)C1CC(OCCOc2cc(N3CCOC3=O)ccc2-c2cc(=O)c3cccc(Cl)c3o2)C1 (centres unmarked) [Example C062, 3-[2-[2-(8-chloro-4-oxo-chromen-2-yl)-5-(2-oxooxazolidin-3-yl)phenoxy]ethoxy]cyclobutanecarboxylic acid] | 5.17 | 5.82 |  | 
N#CC1CC(Oc2cc(C(F)(F)F)ccc2-c2cc(=O)c3cccc(Cl)c3o2)C1 (centres unmarked) [Example B070, 3-[2-(8-chloro-4-oxo-chromen-2-yl)-5-(trifluoromethyl)phenoxy]cyclobutanecarbonitrile] | 6.10 | 6.36 |  | 
COC(=O)CCOc1cc(C(F)(F)F)ccc1-c1cc(=O)c2cccc(Cl)c2o1 [Example A002, methyl 3-[2-(8-chloro-4-oxo-chromen-2-yl)-5-(trifluoromethyl)phenoxy]propanoate] | 5.74 | 6.10 |  | 
Cc1cc(-c2cc(=O)c3cccc(Cl)c3o2)c(OCCO[C@H]2C[C@@H](C(=O)O)C2)cc1Br [Example C031-A, Cis-3-[2-[5-bromo-2-(8-chloro-4-oxo-chromen-2-yl)-4-methyl-phenoxy]ethoxy]cyclobutanecarboxylic acid] | 5.94 | 5.21 |  | 
Cc1ccc(-c2cc(=O)c3cccc(Cl)c3o2)c(OCCC(=O)O)c1 [Example A013, 3-[2-(8-chloro-4-oxo-chromen-2-yl)-5-methyl-phenoxy]propanoic] | 5.72 | 6.18 |  | 
O=c1cc(-c2ccc(Br)cc2OCCO[C@H]2C[C@@H](C(=O)O)C2)oc2c(Cl)ccc(C(F)(F)F)c12 [Example C049-A, Cis-3-[2-[5-bromo-2-[8-chloro-4-oxo-5-(trifluoromethyl)chromen-2-yl]phenoxy]ethoxy]cyclobutanecarboxylic acid] | 5.14 | 7.11 |  | 
COc1cc(O[C@H]2C[C@H](C(=O)O)C2)c(-c2cc(=O)c3cccc(Cl)c3o2)cc1C [Example B017, 3-[2-(8-chloro-4-oxo-chromen-2-yl)-5-methoxy-4-methyl-phenoxy]cyclobutanecarboxylic acid] | 5.31 | 5.31 |  | 
O=C(O)CCOc1cc2c(cc1-c1cc(=O)c3cccc(Cl)c3o1)OCO2 [Example A011, 3-[[6-(8-chloro-4-oxo-chromen-2-yl)-1,3-benzodioxol-5-yl]oxy]propanoic acid] | 6.03 | 6.38 |  | 
COc1cc(OCCC(=O)O)c(-c2cc(=O)c3cccc(Cl)c3o2)cc1C [Example A012, 3-[2-(8-chloro-4-oxo-chromen-2-yl)-5-methoxy-4-methyl-phenoxy]propanoic acid] | 5.68 | 6.19 |  | 
O=C(O)CCOc1cc(OC(F)(F)F)c(Br)cc1-c1cc(=O)c2cccc(Cl)c2o1 [Example A016, 3-[4-bromo-2-(8-chloro-4-oxo-chromen-2-yl)-5-(trifluoromethoxy)phenoxy]propanoic acid] | 6.08 | 5.99 |  | 
Cc1cc(-c2cc(=O)c3cccc(Cl)c3o2)c(OC2CC(C(=O)O)C2)cc1Cl (stereo in doubt) [Example B012-B, Trans-3-[5-chloro-2-(8-chloro-4-oxo-chromen-2-yl)-4-methyl-phenoxy]cyclobutanecarboxylic acid] |  |  | 5.59 | 5.57
O=C(O)CCOc1cc(Br)cc(F)c1-c1cc(=O)c2cccc(Cl)c2o1 [Example A020, 3-[5-bromo-2-(8-chloro-4-oxo-chromen-2-yl)-3-fluoro-phenoxy]propanoic acid] | 5.12 | 6.11 |  | 
Cc1ccc(-c2cc(=O)c3cccc(Cl)c3o2)c(O[C@H]2C[C@H](C(=O)O)C2)c1 [Example B018-B, Trans-3-[2-(8-chloro-4-oxo-chromen-2-yl)-5-methyl-phenoxy]cyclobutanecarboxylic acid] | 5.33 | 6.26 |  | 
Cc1cc(-c2cc(=O)c3cccc(Cl)c3o2)c(O[C@H]2C[C@H](C(=O)O)C2)cc1Br [Example B013-B, Trans-3-[5-bromo-2-(8-chloro-4-oxo-chromen-2-yl)-4-methyl-phenoxy]cyclobutanecarboxylic acid] | 5.99 | 5.61 |  | 
Cc1cc(-c2cc(=O)c3cccc(Cl)c3o2)c(OCCC(=O)O)cc1Br [Example A006, 3-[5-bromo-2-(8-chloro-4-oxo-chromen-2-yl)-4-methyl-phenoxy]propanoic acid] | 5.97 | 5.91 |  | 
COc1cc(OCCO[C@H]2C[C@@H](C(=O)O)C2)c(-c2cc(=O)c3cccc(Cl)c3o2)cc1C [Example C041-A, Cis-3-[2-[2-(8-chloro-4-oxo-chromen-2-yl)-5-methoxy-4-methyl-phenoxy]ethoxy]cyclobutanecarboxylic acid] | 5.23 | 5.11 |  | 
O=c1cc(-c2ccc(Br)cc2OC[C@H]2C[C@H](C(=O)O)C2)oc2c(Cl)cccc12 [Example B025-B, Trans-3-[[5-bromo-2-(8-chloro-4-oxo-chromen-2-yl)phenoxy]methyl]cyclobutanecarboxylic acid] | 5.51 |  |  | 5.64
